Measured values: patent publication US10959995B2, “Methods of acute restoration of vascular compliance” (Alumend, LLC, priority 2013, dated 2021)
“Also recorded” adds a separate entry of the source.

Assays:
artery = experiment: Arterial compression with other photoactivated material; settings: FIG. 13
Experimental: Singlet oxygen generating species, such as Rose Bengal, riboflavin, and methylene blue were tested to determine if they would be effective at arterial compression.

[1] = Storage stability of naphthalimide dimer (solution and powder); assay type: physicochemical
Excerpt: A preparative HPLC approach was used to isolate and specifically purify the compound of formula (V) dimer from the compound of formula (V) naphthalimide product produced from the ethanol crystallization. The HPLC method used was based on the purity method outlined above; however, method modifications were made to replace acetonitrile with ethanol and TFA with acetic acid in the mobile phase. The preparative separation utilized a C18 column (X-bridge, 10 μm, 19×250 mm, Waters). The mobile phase consisted of mobile phase A, 0.1% acetic acid (aq), and mobile phase B, 9:1 ethanol:water (0.1% v/v acetic acid). The column was pre-equilibrated at a starting mobile phase of 95% A:5% B for 20 minutes, at the start of the gradient was a 2 minute hold followed by a linear gradient to 90% B at 40 minutes and a 10 minute hold. An injection volume of 8.5 mL (12 mg/mL purified compound of formula (V)) and flow rate of 8.5 mL/minute were used as well as a detector wavelength of 440 nm. The compound of formula (V) fractions were collected and analyzed using the analytical purity method presented above. Fractions meeting a minimum purity criterion were combined and the solvent driven off by rotovapping the solution to dryness. […] Finally the product was quantitatively transferred from the round bottom flask to a freeze drying flask by dissolving the product in a minimal amount of deionized water. […]

[2] = tested on: hard (calcified) and soft plaque in diseased arteries; experiment: Plaque penetration: diseased arteries soaked with plaque softening composition, light activated, visual and histological examination; parameters: species or system human
Experimental: Diseased arteries were obtained from limb amputations (leg) due to advanced Periperal Arterial Disease (PAD) from patients at Avera McKennan hospital. The received arteries were evaluated and chosen such that the diseased section was of reasonable size to accommodate the treatment catheter balloon length being used. The catheter balloon diameter used was also matched to the diameter of the artery and capable of achieving a 1:1.25 (ratio of artery diameter to balloon diameter) overstretch. The artery was laid in a petri dish and an angioplasty balloon was inserted and inflated for 60 seconds to impart the desired overstretch. While the angioplasty balloon was inflated a permanent marker was used to define the treatment zone (where the overstretch was imparted by the balloon) on the outer surface of the artery. The angioplasty balloon was deflated and removed. The inner lumen of the diseased artery was exposed to a plaque softening composition comprising a compound of formula (V) naphthalimide formulation (2 mg/mL in phosphate buffered saline, pH=7.4) for a period of 5 minutes. For the purpose of filling the artery, one end was clamped, the artery was held upright and a syringe was used to dispense the naphthalimide solution until the inner lumen was filled. The open end of the artery was then clamped and the soaking period of 5 minutes commenced. […] Arteries were cut open lengthwise and the treated section was evaluated by visual examination.
Prior to cutting the artery for visual examination samples from the treated and untreated sections were collected and preserved for histological examination. […] After this time, samples were stored in a −80° C. freezer until ready for further analysis. […] The crystalline nature of hard plaque is readily visible without staining. Under this magnification the crystalline structure of the calcific plaque was readily visible, as shown in FIG. 8 the dark area between the two lighter colored areas of the media. […]

[3] = tested on: hard and soft plaque from common and lower femoral artery; experiment: Tissue immersion: plaque hardness by manual manipulation with forceps; parameters: species or system human; settings: PBS pH 7.4
Excerpt: A sample of human tissue from the common and lower femoral artery was received. It was stored in saline and refrigerated until use. Based upon visual and tactile observations, the arteries were approximately 7-8 mm in diameter and contained evidence of both hard and soft plaque. The soft plaque has a yellow fatty appearance that is distinguishable from the vessel wall. The hard plaque presents itself as hard pieces of material that can be pulled (with a forceps) from the soft plaque. Sections of the artery suitable for catheter work were segregated and stored in phosphate buffered saline (PBS), pH=7.4. From the remaining arterial sections, pieces of tissue containing both hard and soft plaque were removed. These pieces were either placed in a solution of PBS (pH=7.4), or dimeric naphthalimide, such as a compound of formula (V) (which is in PBS, pH=7.4). Prior to immersion in either solution the relative hardness of the plaque was evaluated via manual manipulation with a forcep. After a 5 minute soak in solution (typical exposure time), no difference in the samples soaked in PBS was noticed (control). […] The samples were then left in their respective solutions for an additional 90 minutes.

artery tissue = experiment: Angioplasty with plaque-softening composition and photoactivation: fissure observation; parameters: species or system human
Experimental: The tissue was an artery approximately 7.4 mm in diameter. An Ultra-thin SDS 8 mm×30 mm catheter was used to dilate the artery to 7.55 mm (approximately a 2% overstretch). A fissure or a possible dissection running down the length of the tissue sample was observed.
A section (6.5 cm in length) of artery was exposed to the composition for 5 minutes. An 80 mm catheter was used to impart a 2% overstretch to the artery. The angioplasty was followed by photoactivation at 1800 mW for 60 seconds using the same 80 mm catheter with a 60 mm light fiber centered in the catheter.
A catheter with an 80 mm treatment zone balloon was used however the photoactivating light fiber was only 60 mm in length. During activation it was noted that the light fiber was shifted distally in the catheter. This meant that the distal end of the artery was receiving photoactivation, however, the proximal end received little or no light. A fissure down the length of the artery was again observed.

[4] = 2 mg/mL in PBS pH 7.4, 5 minute soak, 447 nm light activation 60 seconds

For Cc1cc2nc3c(=O)[nH]c(=O)nc-3n(C[C@H](O)[C@H](O)[C@H](O)CO)c2cc1C [riboflavin], the “efficacy at arterial compression” value (artery) was “No efficacy”.
For CN(C)c1ccc2nc3ccc(=[N+](C)C)cc-3sc2c1 [methylene blue], the “efficacy at arterial compression” value (artery) was “No efficacy”.
In the case of NCCOCCOCCNc1ccc2c3c(cccc13)C(=O)N(CCOCCOCCN1C(=O)c3cccc4c(NCCOCCOCCN)ccc(c34)C1=O)C2=O [compound of formula (V)], the “degradation of dimer in powder form” value ([1]; periods exceeding one year of storage in a dessicator at room temperature) is reported as “no evidence of degradation”, the “stability of dimer solution” value ([1]; solution at pH 7.4, periods up to one year) is reported as “excellent stability” and the “tacking of intimal flaps” value [2, 4] is reported as “definitive observation of tacking of intimal flaps”. For the same compound, the “visual/tactile observation of plaque in treated region” value [2, 4] was “apparent softened plaque; also recorded: looked and felt softer and creamier”, the “calcium crystals in treated sections under microscope” value ([2]; treated vs untreated sections of artery) was “less evidence of calcium crystals” and the “plaque hardness after soak” value ([3]; 5 minute soak in solution) was “slight softening”. The “plaque hardness after soak” value ([3]; additional 90 minutes in solution) was “significantly softer and more pliable”, the repair of fissure (artery tissue; angioplasty then composition, distal region with adequate photoactivation) was “there appeared to be a seam indicating repair” and the “fissure in opened artery” value (artery tissue; composition 5 minutes, then angioplasty 2% overstretch, photoactivation 1800 mW 60 seconds) was “no fissure observed”.
With O=C([O-])c1c(Cl)c(Cl)c(Cl)c(Cl)c1-c1c2cc(I)c(=O)c(I)c-2oc2c(I)c([O-])c(I)cc12.[Na+].[Na+] [Rose Bengal] the “efficacy at arterial compression” value (artery) was “No efficacy”.
